Laboratory results: US12428405B2, “Chalcone-based chemotherapeutic compound for triple negative breast cancer” (QATAR UNIVERSITY, priority 2019, dated 2025)
Where “and” joins values, the source holds several entries; their conditions need not be identical. Identical values can stand only once. Entries after “also recorded” stand apart in the source; their conditions may differ.

How the values were obtained:
[1] = test system: BAX/bcl2 expression in MDA-MB-231 cell line; assay: Western blot of BAX/bcl-2 expression; type: cell-based; conditions: 48 h, 5 and 10 μM; vs DMSO and colchicine
Experimental: (§1) Proteins were quantified with the Pierce BCA Protein Assay Kit (Thermo Scientific, USA) following cell lysis. SDS-PAGE was prepared at a concentration of 10% for all studied proteins. All samples were loaded at 40 μg per 1.5 mm 15 wells comb. Running of stained samples was performed using two steps gel electrophoresis (60 Volts for 20 minutes followed by 120 Volts for 1 hour). Afterwards, gels were transferred into PVDF membrane at 100 Voltage for 1.5-2.0 hours using wet transfer. Following transfer, PVDF membranes were blocked with 5% skimmed milk and washed three times. Primary antibodies (Table 2.2) were prepared, then PVDF membrane were incubated with them overnight with gentle shaking at 4° C. Afterwards, membranes were washed three times and incubated with their respective secondary antibodies for 1-2 hours with gentle shaking at room temperature. Pierce™ ECL Western Blotting Substrate was used to detect proteins by chemiluminescence. Blots were imaged using the ibrightCL1000 imaging system.

[2] = test system: BAX/bcl2 expression in MCF-7 cell line; assay: Western blot of BAX/bcl-2 expression; type: cell-based; conditions: 48 h, 5 and 10 μM; vs DMSO and colchicine
Experimental: as §1

[3] = test system: EMT markers on MCF-7; assay: Western blot of EMT markers; type: cell-based; conditions: 5 and 10 μM
Experimental: as §1

[4] = test system: Epithelial Mesenchymal Transition (EMT) markers in MDA-MB-231 cells; assay: Western blot of EMT markers; type: cell-based
Experimental: as §1

[5] = test system: MDA-MB-231; assay: MTT cell viability; type: cell-based; conditions: for IC50: Homo sapiens, MDA-MB-231, 48 hours of treatment, Mean ± SEM (n = 3 × 3); for SI of HNME/MDA-231 (selective index): ratio of LD50 on HNME-E6/E7 to IC50 on MDA-MB-231
Text: (§2) Breast cancer cell lines including MDA-MB-231, MDA-MB-468, MCF-7, BT-474 and SK-BR-3 were obtained from the American Type Tissue Culture (ATCC) and maintained in complete cell culture media Gibco® RPMI 1640 (Thermo Fisher Scientific, USA) supplemented with 10% fetal bovine serum (PAN-Biotech, Aidenbach, Bavaria, Germany) and 1% penicillin/streptomycin (1×) antibiotics (Thermo Fisher Scientific, USA). Human normal mammary epithelial cells immortalized by E6/E7 of HPV type 16 (HNME-E6/E7) were used to predict potential safety of the compounds (125, 126). They were maintained in Gibco® Keratinocyte-SFM (1×) media. All cells were incubated in 5% CO2 at 37° C. incubator. Cells were maintained by routine sub-culturing in T-75 and T25 filtered tissue culture flasks.
(§3) MDA-MB-231, MDA-MB-468, MCF-7, BT-474 and HNME-E6/E7 cells were seeded overnight in 96-well plates at a concentration of 8000-10,000/well depending on their pre-calculated cell density and were incubated overnight. At 24 hours, media was replaced with fresh one. The treatment wells included 6-8 different concentrations of the compounds ranging between 0.25 μM-160 μM. At 48 hours post treatment, 10 μL MTT solution was added to each well followed by 4 hours of incubation. Afterwards, media with MTT was removed from all wells and 50 μl DMSO was added to each well to dissolve the crystals. This was followed by 5 minutes incubation. Absorbance was recorded at a wavelength of 562 nm after 3 minutes of shaking using Infinite 200 PRO Microplate Reader (Tecan, Switzerland). Percentage of viable cells was calculated using the following formula: […]

[6] = test system: MCF-7; assay: MTT cell viability; type: cell-based; conditions: for IC50: Homo sapiens, MCF7, 48 hours of treatment, Mean ± SEM (n = 3 × 3); for SI of HNME/MCF-7 (selective index): ratio of LD50 on HNME-E6/E7 to IC50 on MCF-7
Text: as §2, §3

[7] = test system: MDA-MB-468; assay: MTT cell viability; type: cell-based; conditions: for IC50: Homo sapiens, MDA-MB-468, 48 hours of treatment, Mean ± SEM (n = 3 × 3); for SI of HNME/MDA-468 (selective index): ratio of LD50 on HNME-E6/E7 to IC50 on MDA-MB-468
Text: as §2, §3

[8] = test system: MDA-MB-231 xenografted nude mice; assay: In vivo tumor growth, xenograft model
[9] = test system: MDA-MB-468; assay: PE Annexin V apoptosis assay (flow cytometry); type: cell-based
Experimental: PE Annexin V apoptosis Detection Kit (BD Pharmingen, USA) was used to quantify cell apoptosis in treated versus untreated MDA-MB-468 cells at 24 and 48 hours post treatment. Briefly, cells were seeded at a density of 300,000 cells/well in 6-well plates. Second day, media was replaced with fresh media and treatment was added. Cells were harvested following treatment and each group of cells was stained with PE Annexin V and 7-AAD Annexin V as per the protocol specified on the kit. Samples were then analyzed by Accuri C6 flow cytometer (BD Biosciences, USA). The percentages of cells (viable cells, apoptotic cells, necrotic cells and dead cells) were quantified in each of the four quadrants. Data and figures were processed using the FlowJo V10 software.

[10] = Two-week safety and tolerability of the dose before inoculation; conditions: 10 mg/kg intraperitoneally for two weeks; n=5
[11] = test system: Chorioallantoic membrane (CAM) of the chicken embryos; assay: Chorioallantoic membrane (CAM) angiogenesis assay; type: in vivo; conditions: treated at embryonic day 4, read at day 8; 2 μl of 5 mM stock under coverslip
Experimental: Fertilized white Leghorn chicken embryos (Arab Qatari for Poultry Production, Qatar) were purchased and incubated at 60% humidity at 37° C. in MultiQuip incubator. Ethics approval was obtained from Qatar University-Institutional Bio-safety committee. The embryos were treated in ovo at embryonic day 4 with three of the synthesized chalcones (5, 13 and 14) compared to DMSO treated controls. Briefly, a small cut was made at the top of the shells of the eggs and each treatment was added under a round coverslip at 2 μl of 5 mM stock solutions. Microscopic pictures were taken at embryonic day 8. Embryos treated with compounds 13 and 14 were sacrificed at embryonic day 9 for clinical observations. Quantification of blood vessels was performed manually and the different treatment groups were compared.

[12] = test system: MDA-MB-231; assay: Soft agar colony formation assay; type: cell-based; conditions: for less colonies as compared to untreated: 5 and 10 μM, 21 days post treatment; for colony formation (in words): MDA-MB-231, soft agar
[13] = test system: MCF-7; assay: Radius cell migration assay; type: cell-based; conditions: Homo sapiens, MCF7; 24 hours of treatment; 5 concentrations; three independent experiments; read-out: Migratory IC50 MCF-7
Experimental: For MCF-7 and SK-BR-3 cell lines, migration testing was performed using the Radius™ Cell Migration Assay Kit (Cell Biolabs, Inc., USA) and migration was quantified based on the change in wound area.

[14] = 10 mg/kg i.p., three times per week, 45 days

SMILES: COc1cccc(C(=O)/C=C/c2ccc(N(CCCl)CCCl)cc2)c1 [Compound 14, (E)-3-(4-(Bis(2-chloroethyl)amino)phenyl)-1-(3-methoxyphenyl) prop-2-en-1-one]
- BAX / bcl-2 protein expression, BAX/bcl-2 ratio [1]: upregulation of BAX and downregulation of bcl-2; also recorded: positive increase in BAX/bcl-2 ratio
- BAX / bcl-2 protein expression, BAX/bcl-2 ratio [2]: upregulation of BAX and downregulation of bcl-2; also recorded: positive increase in BAX/bcl-2 ratio
- E-cadherin expression [3]: concentration dependent upregulation
- pan-cadherin expression [3]: upregulated by compound 14 in a concentration dependent manner
- E-cadherin expression ([4]; 5 and 10 μM): concentration dependent upregulation
- pan-cadherin expression ([4]; 5 and 10 μM): upregulated by compound 14 in a concentration dependent manner
- Focal adhesion kinase (FAK) expression ([4]; MDA-MB-231): downregulated
- expression of β-catenin and its phosphorylated form ([4]; cell line not named in the sentence (FIG. 3.24, FIG. 3.25)): No significant changes
- EMT (in words) ([4]; summary statement): reversal of EMT
- IC50 [5]: 6.3 ± 0.78 µM
- SI of HNME/MDA-231 (selective index) [5]: 3.2
- IC50 [6]: 3.96 ± 1.87 µM
- SI of HNME/MCF-7 (selective index) [6]: 5.22
- IC50 [7]: 8.73 ± 0.67 µM
- SI of HNME/MDA-468 (selective index) [7]: 2.36
- day on which the tumor in the treated group started to grow ([8]; 10 mg/kg i.p., three times per week): 24 days
- clinical toxicity to treated animals (in words) [8, 14]: no notable clinical toxicity
- mice health and weight (in words) [8, 14]: did not affect the mice health nor it had induced any changes to the mice weight
- inhibition in tumor growth as compared to the placebo ([8]; 10 mg/kg i.p., three times per week, day 45, n=5): 46.41±0.71% and 46.41%
- survival rate of the mice ([8]; during the 45 days): 100%
- tumor volume ([8]; treated mice, day 45, n=5): 1350±1350 mm^3
- tumor weight ([8]; treated mice, day 45, n=5): 0.88±0.71 gm
- early and late apoptosis (in words) ([9]; 24 and 48 hours): time dependent
- rate of apoptosis ([9]; 48 hours, N=1): 28.00%
- clinical observations, tolerability (in words) [10]: did not show any changes in the mice food intake, weights, or shape
- inhibition of blood vessels development vs control [11]: 60.20±8.47%
- less colonies as compared to untreated [12]: ~100%
- colony formation (in words) [12]: completely inhibited; also recorded: better effects on MDA-MB-231 as compared to colchicine and paclitaxel
- IC50 [13]: 2440 ± 390 nM

SMILES: CS(=O)(=O)c1ccc(C(=O)/C=C/c2ccc(N(CCCl)CCCl)cc2)cc1 [Compound 13, (E)-3-(4-(Bis(2-chloroethyl)amino)phenyl)-1-(4-(methylsulfonyl)phenyl) prop-2-en-1-one]
- IC50 [5]: 9.67 ± 0.68 µM
- SI of HNME/MDA-231 (selective index) [5]: 3.34
- IC50 [6]: 8.95 ± 1.46 µM
- SI of HNME/MCF-7 (selective index) [6]: 3.61
- IC50 [7]: 9.29 ± 0.68 µM
- SI of HNME/MDA-468 (selective index) [7]: 3.48
- inhibition of blood vessels development vs control [11]: 55.6±6.04%
- less colonies as compared to untreated [12]: ~100%
- colony formation (in words) [12]: better effects on MDA-MB-231 as compared to colchicine and paclitaxel
